Laboratory results: patent publication US12605368B2, “Suppression of neuroinflammation and composition and method therefor” (Kyoto University, priority 2020, dated 2026)

Experiments:
[1] = tested on: microglial cells BV-2; assay: Western blotting of BV-2 cells treated with compound; type: cell-based; settings: time-dependently and dose-dependently, FIG. 1A
Experimental: (§1) Microglial cell line BV-2 was maintained in high glucose Dulbecco's modified Eagle's medium (DMEM) (Nacalai Tesque) supplemented with 10% fetal bovine serum (Nichirei Bioscienses), 100 U/mL penicillin, and 100 μg/mL streptomycine. Primary hippocampal and cortical neuronal cultures were prepared from embryonic day 18 mice and maintained in Neurobasal medium (Life Technologies) supplemented with 2% B27 supplement, 100 U/mL, penicillin, 100 μg/mL streptomycin, and 0.5 mM L-glutamine. Dopaminergic neuronal cultures were prepared from ventral midbrain of embryonic day 13 mice and maintained in Neurobasal medium (Life Technologies) supplemented with 10% fetal bovine serum, 2% B27 supplement, 10 ng/mL GDNF, 100 U/mL penicillin, and 100 μg/mL streptomycin. For depletion of glial cells, 5 μM cytosine β-D-arabinofuranoside, 10 μM 5-fluorouracil, and 10 μM uridine (all from Sigma-Aldrich) were added at 2-day culture. Mixed glial cultures were obtained from new born murine pups (P1 to P4) and maintained in T75 or T175 flask. Media were changed every 3-4 days until the cells get confluent. Microglia were obtained either by shaking vigorously or Cd11b-positive selection (Invitrogen). For co-culture experiments, murine glial cell cultures were prepared from MGE (Medial Ganglionic Eminence) of embryonic day 13 and cultured in PLL-coated dish. Cultures were passaged twice with trypsin, and used for co-cultured assay with iPSC-derived neurons. 1039A1 iPS cells were established and maintained as described previously (Nakagawa et al., Sci Rep 4, 3594, 2014). […]
Total protein was extracted from cell culture samples using RIPA buffer (Wako) containing protease inhibitor cocktail (Nacalai Tesque) and phosphatase inhibitor cocktail (Nacalai Tesque). After 15 minutes of centrifugation at 15,000 rpm at 4° C., supernatants were collected and protein concentrations were measured using a Pierce 660 nm Protein Assay Kit (Thermo Scientific). […]

[2] = tested on: Nrf2 in Cd11b-positive microglial cells; assay: Nrf2 immunocytochemistry in glial cells (nuclei of Cd11b-positive cells), with p21 siRNA; type: cell-based, murine; settings: for Nrf2 expression: data not shown; for expression of Nrf2 in Cd11b-positive microglial cells: glial cells, FIGS. 1B and 1C
Experimental: Cells were plated in 96-well purecoat amine coated plates and treated as desired for each specific experiment. After immunolabeling was complete, automated image acquisition (with twenty-fold magnification of objective lens, 2×2 CCD binning, twenty-five fields per well) and analysis was performed using Opera Phenix (manufactured by PerkinElmer Co., Ltd.) equipped with Harmony software. Image acquisition was performed using a fluorescence microscope (BZ-9000, manufactured by Keyence corporation) or a confocal microscope (SP-8, manufactured by Leica) as well.
Microglial cell line BV-2 was maintained in high glucose Dulbecco's modified Eagle's medium (DMEM) (Nacalai Tesque) supplemented with 10% fetal bovine serum (Nichirei Bioscienses), 100 U/mL penicillin, and 100 μg/mL streptomycine. Primary hippocampal and cortical neuronal cultures were prepared from embryonic day 18 mice and maintained in Neurobasal medium (Life Technologies) supplemented with 2% B27 supplement, 100 U/mL, penicillin, 100 μg/mL streptomycin, and 0.5 mM L-glutamine. Dopaminergic neuronal cultures were prepared from ventral midbrain of embryonic day 13 mice and maintained in Neurobasal medium (Life Technologies) supplemented with 10% fetal bovine serum, 2% B27 supplement, 10 ng/mL GDNF, 100 U/mL penicillin, and 100 μg/mL streptomycin. For depletion of glial cells, 5 μM cytosine β-D-arabinofuranoside, 10 μM 5-fluorouracil, and 10 μM uridine (all from Sigma-Aldrich) were added at 2-day culture. Mixed glial cultures were obtained from new born murine pups (P1 to P4) and maintained in T75 or T175 flask. Media were changed every 3-4 days until the cells get confluent. Microglia were obtained either by shaking vigorously or Cd11b-positive selection (Invitrogen). For co-culture experiments, murine glial cell cultures were prepared from MGE (Medial Ganglionic Eminence) of embryonic day 13 and cultured in PLL-coated dish. Cultures were passaged twice with trypsin, and used for co-cultured assay with iPSC-derived neurons. 1039A1 iPS cells were established and maintained as described previously (Nakagawa et al., Sci Rep 4, 3594, 2014). Induction of dopaminergic precursor cells was performed as described previously (Doi et al., Stem Cell Reports 2, 337-350, 2014, Kikuchi et al., Nature 548, 592-596, 2017). Briefly, hiPS cells 1039A1 were plated on Laminin511, and differentiated in GMEM medium containing 8% KSR, Y27632 (Wako), A-83-01 (Wako), LDN193178 (STEMGENT). Purmorphamine (Wako), FGF8 (Wako, from day 1 to day 7), and CHIR99021 (Wako, from day 3 to day 12) were added. After cell sorting of Corin+ cells, cells were replated onto low attachment 96-well plates for neurosphere cultures and maintained in neurobasal medium with B27 supplement, 2 mM L-glutamine (Invitrogen), 10 ng/mL GDNF, 200 μM ascorbic acid, 20 ng/mL BDNF (all from Wako), and 400 μM dbcAMP (Sigma-Aldrich) for further 2 weeks. To avoid apoptosis, 30 μM of Y27632 (Wako) was added at the initial plating.
Cells were fixed with 4% paraformaldehyde for 10 minutes, followed by permealization with 0.2% TritonX-100 for 10 minutes. After washing in PBS, cells were blocked in 5% normal donkey serum (Jackson ImmunoResearch Laboratories)/1% BSA (SIGMA A7906)/PBS and then labeled with the primary antibodies. After washing with PBS, primary antibodies were labeled with the corresponding fluorescence-conjugated secondary antibodies. Hoechst 33342 was used to detect nuclei.
Cells were visualized with anti-Nrf2 (pseudo-color), Cd11b (magenta, microglia), and GFAP (green, astrocyte) antibodies. Scale bar=25 μm.
Glial cells were treated with the compounds 1 and 2 for indicated periods and at indicated concentrations.

[3] = biological target: DYRK1A (Homo sapiens, UniProt Q13627); assay: in vitro kinase activity assay against DYRK1A; type: biochemical
Experimental: In Vitro Enzyme Activity Assay
The in vitro kinase activity assay was performed as described previously (Ogawa et al., Nat Commun 1, 86, 2010).

[4] = tested on: microglia; assay: cytokine production of microglia upon LPS stimulation (qPCR, ELISA), with Nrf2 siRNA; type: cell-based; settings: for up-regulation of proinflammatory cytokine gene expression by LPS stimulation: qPCR and ELISA, FIGS. 2A, 2B; for up-regulation of proinflammatory cytokine gene expression by LPS stimulation / induction of expression of several chemokines and iNOS mRNA: LPS stimulation; for induction of expression of several chemokines and iNOS mRNA: FIG. 2A
Experimental: Total RNA was extracted with RNeasy kit (Qiagen) followed by cDNA synthesis using iScript (Bio-Rad). Quantitative PCRs were carried out with SYBR green ExTaq (TaKaRa). Primers for genes were designed by using PrimerBank (Wang et al., 2012).
Studies were made on whether the compounds 1 and 2 would suppress cytokine production of microglia.
In the cells treated with Nrf2 siRNA, the suppression of cytokine production was not observed. *P<0.05.

[5] = tested on: hiPSC-derived dopaminergic neuron progenitors; assay: co-culture of hiPSC-derived dopaminergic neuron progenitors with murine glia under H2O2 oxidative stress; type: cell-based, human; settings: H2O2 treatment
Experimental: as §1, with “(Invitrogen).” for “(Invitrogen). For co-culture experiments, murine glial cell cultures were prepared from MGE (Medial Ganglionic Eminence) of embryonic day 13 and cultured in PLL-coated dish. Cultures were passaged twice with trypsin, and used for co-cultured assay with iPSC-derived neurons. 1039A1 iPS cells were established and maintained as described previously (Nakagawa et al., Sci Rep 4, 3594, 2014).”
The neuronal survival was evaluated according to the number of human nuclei by immunostaining (FIGS. 5A and 5B).
Dopaminergic markers of Nurr1 and TH were evaluated by qPCR (FIG. 5C). […]

[6] = tested on: iPSC-derived DA neurons transplanted in striatum; assay: transplantation of hiPSC-derived DA neurons into murine striatum; type: in vivo, SCID mice; settings: four weeks after the transplantation; mice; administered from one hour before surgery for four days
Experimental: (§2) C57black/6J mice, 8 to 9-week old, were intraperitoneally injected with LPS (O55:B5) (manufactured by Sigma, L2880) at 1 mg/kg once daily for four days. hiPSC-derived dopaminergic (DA) progenitors were transplanted in striatum of 4-week-old SCID mice. Drug treatment was performed one hour before LPS-injection or iPSC transplantation.
The compound 1 was initially dissolved in DMSO at a concentration of 100 mg/mL and diluted to desired concentration with 10% Tween 80 (polysorbate 80 (HX2), manufactured by HOF Corporation) in physiological saline solution, and subcutaneously delivered in a volume of 0.05 mL/kg. The compound 2 was suspended in 0.5% carboxymethylcellulose (Nacalai Tesque) and orally administered in a volume of 0.1 mL/kg at desired concentration. Drug-treated animals were anesthetized with isofluorane for blood sampling and subsequently perfused with physiological saline solution. […] Concentration of target compounds or dopamine in serum and brain homogenates were analyzed by LC/MS using an Agilent 6420 Q-TOF mass spectrometer with an Agilent 1290 Nano-flow HPLC system (Agilent Technologies). […]
Arrows indicate iPSC-derived cells that are co-labeled by TH or Nurr1 (both are dopaminergic markers). […] The transplanted DA neurons were identified by hNuclei staining and survived iPSC-derived DA neurons were quantified with co-staining of TH and Nurr1 dopaminergic markers. […]

[7] = tested on: mice injected with LPS; assay: LPS-induced neuro-inflammation and neurodegeneration in mice; type: in vivo, C57black/6J mice
Experimental: as §2
The compound 1 was initially dissolved in DMSO at a concentration of 100 mg/mL and diluted to desired concentration with 10% Tween 80 (polysorbate 80 (HX2), manufactured by HOF Corporation) in physiological saline solution, and subcutaneously delivered in a volume of 0.05 mL/kg. The compound 2 was suspended in 0.5% carboxymethylcellulose (Nacalai Tesque) and orally administered in a volume of 0.1 mL/kg at desired concentration. Drug-treated animals were anesthetized with isofluorane for blood sampling and subsequently perfused with physiological saline solution. Brain homogenates were prepared using the Beads Crusher μT-12 system (TAITEC) in five-volume of physiological saline solution. Concentration of target compounds or dopamine in serum and brain homogenates were analyzed by LC/MS using an Agilent 6420 Q-TOF mass spectrometer with an Agilent 1290 Nano-flow HPLC system (Agilent Technologies). For measurement of dopamine, 50 mg/mL ascorbic acid was added to avoid oxidization.
Adult mouse brains were perfused with PBS then fixed in 4% paraformaldehyde, and 40-μm sections were cut with a vibratome (Leica) or 20-μm sections with a cryostat (Leica) after equilibrating in 30% sucrose/PBS. After antigen retrieval using HistoOne (Nacalai Tesque), tissues were stained with indicated antibodies.
LPS was intraperitoneally administered to mice to induce neuro-inflammation. Drug (the compound 2) was administered one hour before the LPS injection to the mice. The drug was orally administered at a indicated dose once daily.
Glial activation and cytokine production were evaluated at day 1 after the administration. Degeneration of dopaminergic nerves were evaluated at day 7 and day 14 (FIGS. 4B and 4C). […]
Animals, N=5 to 6, were analyzed regarding each condition. […]

SMILES	Nrf2 (Western blotting) [1]	cyclin D1 (Western blotting) [1]	p21 (Western blotting) [1]	Nrf2 expression ([2]; control siRNA-treated cells)	expression of Nrf2 in Cd11b-positive microglial cells [2]	Nrf2 expression ([2]; p21 siRNA-treated cells)	IC50 [3] [nM]	up-regulation of proinflammatory cytokine gene expression by LPS stimulation [4]	induction of expression of several chemokines and iNOS mRNA ([4]; qPCR)	suppression of cytokine production ([4]; cells treated with Nrf2 siRNA, qPCR, FIG. 2C)	survival of DA neurons ([5]; co-culture with glia, FIGS. 5A to 5C)	protection of neurons ([5]; without glia)	survival rate of iPSC-derived DA neurons [6]	loss of dopaminergic neurons (TH-positive cells in SNpc) ([7]; LPS-injected mice, day 7 and day 14, FIGS. 4B and 4C)	cytokine production ([7]; qPCR and ELISA, striatum tissues at day 1, oral once daily, FIGS. 4E and 4F)	glial activation ([7]; qPCR on striatum tissues at day 1 from last LPS injection, oral once daily, FIG. 4D)
c1cncc(-c2ccc3[nH]ncc3c2)c1 [Compound 1]	up-regulated	up-regulated	up-regulated	increased	induced	did not increase	77	suppressed effectively	also suppressed	not observed	–	–	–	–	–	–
CNC1/C(=C/C(C)=O)Sc2ccc3occc3c21 (stereo not shown) [Compound 2]	–	–	–	increased	induced	did not increase	32.9	suppressed effectively	also suppressed	–	increased depending on the added amount	did not occur	improves	rescued	suppressed	suppressed
